Results: ChEMBL document CHEMBL1201862, “PubChem BioAssay data set” (2004)
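A five-concentration, 48-hour dose response in 96-well plates underlies each endpoint, interpolated linearly between surrounding concentrations. Abbreviation: GI50, concentration required for 50% inhibition of growth.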 Active and inactive are the calls of the source. Rule as the data show it: active = GI50 up to about 1.1 µM and inactive = higher.

How the values were obtained:
Experiment in all cases: NCI anticancer screen, dose series, 48 h
SK-MEL-2 = test system: SK-MEL-2
SNB-75 = test system: SNB-75
SF-539 = test system: SF-539
SF-268 = test system: SF-268
UO-31 = test system: UO-31
OVCAR-8 = test system: OVCAR-8
UACC-257 = test system: UACC-257
SW-620 = test system: SW-620
SN12C = test system: SN12C
HL-60 = test system: HL-60
HT-29 = test system: HT-29
COLO 205 = test system: COLO 205
HOP-92 = test system: HOP-92
MOLT-4 = test system: MOLT-4
NCI-H226 = test system: NCI-H226
OVCAR-5 = test system: OVCAR-5
NCI-H23 = test system: NCI-H23
SK-OV-3 = test system: SK-OV-3
NCI-H522 = test system: NCI-H522
Malme-3M = test system: Malme-3M

Row | Structure (SMILES) | GI50 (SK-MEL-2) | GI50 (SNB-75) | GI50 (SF-539) | GI50 (SF-268) | GI50 (UO-31) | GI50 (OVCAR-8) | GI50 (UACC-257) | GI50 (SW-620) | GI50 (SN12C) | GI50 (HL-60) | GI50 (HT-29) | GI50 (COLO 205) | GI50 (HOP-92) | GI50 (MOLT-4) | GI50 (NCI-H226) | GI50 (OVCAR-5) | GI50 (NCI-H23) | GI50 (SK-OV-3) | GI50 (NCI-H522) | GI50 (Malme-3M)
1 | O=C1CCC[C@H]2O[C@@H](COC(=O)c3ccccc3)C[C@H]2O1 | > 100 µM (inactive) | > 100 µM (inactive) | > 100 µM (inactive) | > 100 µM (inactive) | > 100 µM (inactive) | > 100 µM (inactive) | > 100 µM (inactive) | > 100 µM (inactive) | > 100 µM (inactive) | > 100 µM (inactive) | > 100 µM (inactive) | > 100 µM (inactive) | > 100 µM (inactive) | > 100 µM (inactive) | > 100 µM (inactive) | > 100 µM (inactive) | > 100 µM (inactive) | > 100 µM (inactive) | – | –
2 | CN(C)C(=O)N(CCCl)N=O | > 100 µM (inactive) | > 63.7 µM (inactive) | > 100 µM (inactive) | > 100 µM (inactive) | > 100 µM (inactive) | > 100 µM (inactive) | > 100 µM (inactive) | > 100 µM (inactive) | > 100 µM (inactive) | > 100 µM (inactive) | > 100 µM (inactive) | > 100 µM (inactive) | > 100 µM (inactive) | > 100 µM (inactive) | > 10 µM (inactive) | > 100 µM (inactive) | > 100 µM (inactive) | > 100 µM (inactive) | > 100 µM (inactive) | > 100 µM (inactive)
3 | CC(C)OP(=O)(OC(C)C)C1=NN(c2ccc([N+](=O)[O-])cc2)C(P(=O)(OC(C)C)OC(C)C)=NN1c1ccc([N+](=O)[O-])cc1 | > 100 µM (inactive) | – | 31 µM (inactive) | > 100 µM (inactive) | 95.7 µM (inactive) | 38.1 µM (inactive) | – | > 100 µM (inactive) | 44.7 µM (inactive) | 2.55 µM (inactive) | 44 µM (inactive) | > 100 µM (inactive) | 7.62 µM (inactive) | 5.19 µM (inactive) | > 100 µM (inactive) | > 100 µM (inactive) | > 100 µM (inactive) | > 100 µM (inactive) | 46 µM (inactive) | 72.1 µM (inactive)
4 | CCCCc1nccc2c(C)c3[nH]c4ccccc4c3cc12 | 3.88 µM (inactive) | 5.93 µM (inactive) | 2.45 µM (inactive) | 5.87 µM (inactive) | 1.86 µM (inactive) | 2.84 µM (inactive) | 2.42 µM (inactive) | 2.26 µM (inactive) | 6.98 µM (inactive) | 1.83 µM (inactive) | 2.62 µM (inactive) | 0.92 µM (active) | 3.74 µM (inactive) | 1.98 µM (inactive) | 7.57 µM (inactive) | 6.44 µM (inactive) | 3.66 µM (inactive) | 5.81 µM (inactive) | 1.91 µM (inactive) | 6.04 µM (inactive)
5 | COC1C(=O)CCC2(CO2)C1(O)C1(C)OC1CC=C(C)C (configuration not stated) | 27.6 µM (inactive) | 69.8 µM (inactive) | – | 33.5 µM (inactive) | 28.4 µM (inactive) | 30.9 µM (inactive) | 23.2 µM (inactive) | 18.4 µM (inactive) | > 100 µM (inactive) | – | 23.1 µM (inactive) | 16.6 µM (inactive) | 25.8 µM (inactive) | 25.1 µM (inactive) | – | 51.5 µM (inactive) | 46.7 µM (inactive) | 51.6 µM (inactive) | – | –
6 | Cc1ccc(C2C(Cl)C(=O)N2NC(=O)c2ccc(N)cc2)cc1 (configuration not stated) | 1.33 µM (inactive) | 47.6 µM (inactive) | 23.9 µM (inactive) | – | 30 µM (inactive) | 14.4 µM (inactive) | 24.3 µM (inactive) | 21 µM (inactive) | 22.7 µM (inactive) | 12.1 µM (inactive) | 21.2 µM (inactive) | 22.6 µM (inactive) | 14.5 µM (inactive) | 11.4 µM (inactive) | 27.4 µM (inactive) | 24.3 µM (inactive) | 16 µM (inactive) | 20.1 µM (inactive) | 12 µM (inactive) | 17.1 µM (inactive)
7 | C=C(C[C@@H](O)[C@H](C)NC(=O)OCc1ccccc1)C(=O)OC(C)(C)C | > 100 µM (inactive) | 79.8 µM (inactive) | 50 µM (inactive) | > 100 µM (inactive) | > 100 µM (inactive) | 66.8 µM (inactive) | 32.1 µM (inactive) | 39.7 µM (inactive) | > 100 µM (inactive) | 26.3 µM (inactive) | > 100 µM (inactive) | > 100 µM (inactive) | > 100 µM (inactive) | 46.2 µM (inactive) | > 100 µM (inactive) | > 100 µM (inactive) | 45.6 µM (inactive) | > 100 µM (inactive) | 38.6 µM (inactive) | > 100 µM (inactive)
8 | C1=C(c2ccccc2)SC(N2CCCCC2)S1 (configuration not stated) | > 100 µM (inactive) | 55.6 µM (inactive) | > 100 µM (inactive) | > 100 µM (inactive) | > 100 µM (inactive) | – | > 100 µM (inactive) | > 100 µM (inactive) | > 100 µM (inactive) | 69 µM (inactive) | > 100 µM (inactive) | > 100 µM (inactive) | > 100 µM (inactive) | 81.5 µM (inactive) | > 100 µM (inactive) | > 100 µM (inactive) | > 100 µM (inactive) | > 100 µM (inactive) | 66.4 µM (inactive) | 88.7 µM (inactive)
9 | Cc1ccc(S(=O)(=O)Oc2cc(-c3ccccc3)nc3ccccc23)cc1 | 1.98 µM (inactive) | 1.92 µM (inactive) | 2.08 µM (inactive) | 8.77 µM (inactive) | 6.3 µM (inactive) | 5.24 µM (inactive) | 10 µM (inactive) | 1.22 µM (inactive) | 5.93 µM (inactive) | 1.03 µM (active) | 1.93 µM (inactive) | 0.544 µM (active) | 3.83 µM (inactive) | 3.63 µM (inactive) | 6.4 µM (inactive) | 15.8 µM (inactive) | 2.53 µM (inactive) | 2.23 µM (inactive) | 1.13 µM (inactive) | 1.58 µM (inactive)
10 | O=C(NCCN(CCNC(=O)c1cccc(=O)n1O)CCNC(=O)c1cccc(=O)n1O)c1cccc(=O)n1O | > 100 µM (inactive) | > 100 µM (inactive) | > 100 µM (inactive) | > 100 µM (inactive) | > 100 µM (inactive) | > 100 µM (inactive) | > 100 µM (inactive) | > 100 µM (inactive) | > 100 µM (inactive) | > 100 µM (inactive) | > 100 µM (inactive) | > 100 µM (inactive) | > 100 µM (inactive) | – | > 100 µM (inactive) | > 100 µM (inactive) | > 100 µM (inactive) | > 100 µM (inactive) | > 100 µM (inactive) | > 100 µM (inactive)
11 | CC(=O)c1sc(Nc2nnc(-c3ccc(-c4nnc(Nc5nc(C)c(C(C)=O)s5)o4)cc3)o2)nc1C | – | – | – | > 100 µM (inactive) | > 10 µM (inactive) | > 100 µM (inactive) | > 100 µM (inactive) | > 100 µM (inactive) | > 100 µM (inactive) | > 100 µM (inactive) | > 100 µM (inactive) | > 100 µM (inactive) | > 100 µM (inactive) | > 100 µM (inactive) | > 100 µM (inactive) | > 10 µM (inactive) | > 100 µM (inactive) | > 10 µM (inactive) | > 10 µM (inactive) | > 100 µM (inactive)
12 | O=S1(=O)C(=C(c2ccccc2)c2ccccc2)S(=O)(=O)c2ccccc21 | > 100 µM (inactive) | 20.2 µM (inactive) | 27.5 µM (inactive) | > 72.6 µM (inactive) | > 100 µM (inactive) | > 100 µM (inactive) | > 100 µM (inactive) | > 100 µM (inactive) | > 100 µM (inactive) | > 100 µM (inactive) | > 100 µM (inactive) | > 100 µM (inactive) | 20.6 µM (inactive) | > 100 µM (inactive) | > 60.3 µM (inactive) | > 100 µM (inactive) | > 63.2 µM (inactive) | > 56.5 µM (inactive) | > 100 µM (inactive) | 53.1 µM (inactive)
13 | CCC12CCC(O)C1N(C)CCC2Sc1ccccc1 (configuration not stated) | > 100 µM (inactive) | 24.8 µM (inactive) | > 100 µM (inactive) | 75.5 µM (inactive) | 28.8 µM (inactive) | > 100 µM (inactive) | 61.2 µM (inactive) | > 100 µM (inactive) | > 100 µM (inactive) | 22.9 µM (inactive) | 34.8 µM (inactive) | 80 µM (inactive) | 28.6 µM (inactive) | 28.5 µM (inactive) | 23.4 µM (inactive) | – | > 100 µM (inactive) | > 100 µM (inactive) | > 100 µM (inactive) | 35.2 µM (inactive)
14 | COc1ccc(/C(Cl)=C(\C=O)c2ccc(Cl)cc2)cc1 | 3.82 µM (inactive) | 4.27 µM (inactive) | 9.16 µM (inactive) | 6.11 µM (inactive) | 4.71 µM (inactive) | 4.41 µM (inactive) | 11 µM (inactive) | 4.12 µM (inactive) | 3.08 µM (inactive) | 3.46 µM (inactive) | 4.84 µM (inactive) | – | – | 2.63 µM (inactive) | 6.35 µM (inactive) | 57.5 µM (inactive) | 3.56 µM (inactive) | 40.9 µM (inactive) | 2.19 µM (inactive) | 23.3 µM (inactive)
15 | Cc1cn([C@@H]2C[C@H](CO)[C@@H](O)C2)c(=O)[nH]c1=O | > 100 µM (inactive) | 78.9 µM (inactive) | > 100 µM (inactive) | > 100 µM (inactive) | > 100 µM (inactive) | > 100 µM (inactive) | > 100 µM (inactive) | > 100 µM (inactive) | > 100 µM (inactive) | > 100 µM (inactive) | > 100 µM (inactive) | > 100 µM (inactive) | > 100 µM (inactive) | > 100 µM (inactive) | > 100 µM (inactive) | > 100 µM (inactive) | > 100 µM (inactive) | > 100 µM (inactive) | > 100 µM (inactive) | > 100 µM (inactive)
